Tested on: 616215-338-R-J1-PDC complex spheroid growth, % test/control
Test: Anticancer human tumor 616215-338-R-J1-PDC patient-derived colon adenocarcinoma cell line growth inhibition [Asc]
Conditions: for IC50: curve of first compound; for viability, T/C: stronger effect = lower value; active means viability on the fitted dose curve at most 10% of control; inactive means the rest
How it was run: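 Concentration series start at each agent's clinical Cmax, or at 10 microM when none is established, and drop in half-log steps; agents are applied alone or together to complex spheroids built with HUVEC and hMSC.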

[1] = second compound 0.00316 µM, first compound 0.00316 µM
[2] = second compound 0.00316 µM, first compound 0.01 µM
[3] = second compound 0.00316 µM, first compound 0.0316 µM
[4] = second compound 0.00316 µM, first compound 0.1 µM
[5] = second compound 0.00316 µM, first compound 0.316 µM
[6] = second compound 0.00316 µM, first compound 1 µM
[7] = second compound 0.01 µM, first compound 0.00316 µM
[8] = second compound 0.01 µM, first compound 0.01 µM
[9] = second compound 0.01 µM, first compound 0.0316 µM
[10] = second compound 0.01 µM, first compound 0.1 µM
[11] = second compound 0.01 µM, first compound 0.316 µM
[12] = second compound 0.01 µM, first compound 1 µM
[13] = second compound 0.0316 µM, first compound 0.00316 µM
[14] = second compound 0.0316 µM, first compound 0.01 µM
[15] = second compound 0.0316 µM, first compound 0.0316 µM
[16] = second compound 0.0316 µM, first compound 0.1 µM
[17] = second compound 0.0316 µM, first compound 0.316 µM
[18] = second compound 0.0316 µM, first compound 1 µM
[19] = second compound 0.1 µM, first compound 0.00316 µM
[20] = second compound 0.1 µM, first compound 0.01 µM
[21] = second compound 0.1 µM, first compound 0.0316 µM
[22] = second compound 0.1 µM, first compound 0.1 µM
[23] = second compound 0.1 µM, first compound 0.316 µM
[24] = second compound 0.1 µM, first compound 1 µM
[25] = second compound 0.316 µM, first compound 0.00316 µM
[26] = second compound 0.316 µM, first compound 0.01 µM
[27] = second compound 0.316 µM, first compound 0.0316 µM
[28] = second compound 0.316 µM, first compound 0.1 µM
[29] = second compound 0.316 µM, first compound 0.316 µM
[30] = second compound 0.316 µM, first compound 1 µM
[31] = second compound 1 µM, first compound 0.00316 µM
[32] = second compound 1 µM, first compound 0.01 µM
[33] = second compound 1 µM, first compound 0.0316 µM
[34] = second compound 1 µM, first compound 0.1 µM
[35] = second compound 1 µM, first compound 0.316 µM
[36] = second compound 1 µM, first compound 1 µM
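Further: spheroids exposed to agents for seven days before readout.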
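Wherever viability, T/C is given: 100% = DMSO vehicle control viability.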

CCN1CCN(Cc2ccc(Nc3ncc(F)c(-c4cc(F)c5nc(C)n(C(C)C)c5c4)n3)nc2)CC1 + CNC(C)C(=O)NC1CN(S(=O)(=O)c2cccc(S(=O)(=O)N3CCC4CCC(C(=O)NC(c5ccccc5)c5ccccc5)N4C(=O)C(NC(=O)C(C)NC)C3)c2)CCC2CCC(C(=O)NC(c3ccccc3)c3ccccc3)N2C1=O
586 nM: IC50 (second compound 0.0316 µM)
441 nM: IC50 (second compound 0.1 µM)
inactive: viability, T/C [1] 105% | viability, T/C [2] 105% | viability, T/C [3] 92.1% | viability, T/C [4] 92.4% | viability, T/C [5] 41.5% | viability, T/C [6] 16% | viability, T/C [7] 106% | viability, T/C [8] 112% | viability, T/C [9] 99.2% | viability, T/C [10] 60.1% | viability, T/C [11] 58% | viability, T/C [12] 18.8% | viability, T/C [13] 100% | viability, T/C [14] 114% | viability, T/C [15] 90.9% | viability, T/C [16] 90% | viability, T/C [17] 87.9% | viability, T/C [18] 19.5% | viability, T/C [19] 107% | viability, T/C [20] 105% | viability, T/C [21] 102% | viability, T/C [22] 67.7% | viability, T/C [23] 73.3% | viability, T/C [24] 18.9% | viability, T/C [25] 111% | viability, T/C [26] 107% | viability, T/C [27] 90.4% | viability, T/C [28] 61.8% | viability, T/C [29] 61.3% | viability, T/C [30] 33.3% | viability, T/C [31] 100% | viability, T/C [32] 111% | viability, T/C [33] 101% | viability, T/C [34] 101% | viability, T/C [35] 67.8% | viability, T/C [36] 31.3%
261 nM: IC50 (second compound 0.00316 µM)
386 nM: IC50 (second compound 0.316 µM)
555 nM: IC50 (second compound 1 µM)
298 nM: IC50 (second compound 0.01 µM)

Cn1ncnc1[C@H]1c2n[nH]c(=O)c3cc(F)cc(c23)N[C@@H]1c1ccc(F)cc1 + CNC(C)C(=O)NC1CN(S(=O)(=O)c2cccc(S(=O)(=O)N3CCC4CCC(C(=O)NC(c5ccccc5)c5ccccc5)N4C(=O)C(NC(=O)C(C)NC)C3)c2)CCC2CCC(C(=O)NC(c3ccccc3)c3ccccc3)N2C1=O
< 0.316 nM: IC50 (second compound 0.00316 µM)
inactive: viability, T/C (second compound 0.00316 µM, first compound 0.000316 µM) 10.7% | viability, T/C (second compound 0.01 µM, first compound 0.000316 µM) 95% | viability, T/C (second compound 0.01 µM, first compound 0.001 µM) 101% | viability, T/C [7] 97.2% | viability, T/C [8] 92.4% | viability, T/C [9] 95.1% | viability, T/C [10] 98.5% | viability, T/C (second compound 0.0316 µM, first compound 0.000316 µM) 91.5% | viability, T/C (second compound 0.0316 µM, first compound 0.001 µM) 95.5% | viability, T/C [13] 101% | viability, T/C [14] 102% | viability, T/C [15] 100% | viability, T/C [16] 110% | viability, T/C (second compound 0.1 µM, first compound 0.000316 µM) 106% | viability, T/C (second compound 0.1 µM, first compound 0.001 µM) 108% | viability, T/C [19] 103% | viability, T/C [20] 108% | viability, T/C [21] 102% | viability, T/C [22] 103% | viability, T/C (second compound 0.316 µM, first compound 0.000316 µM) 97.6% | viability, T/C (second compound 0.316 µM, first compound 0.001 µM) 104% | viability, T/C [25] 102% | viability, T/C [26] 104% | viability, T/C [27] 102% | viability, T/C [28] 98.4% | viability, T/C (second compound 1 µM, first compound 0.000316 µM) 107% | viability, T/C (second compound 1 µM, first compound 0.001 µM) 99.2% | viability, T/C [31] 97.2% | viability, T/C [32] 99.2% | viability, T/C [33] 96% | viability, T/C [34] 101%
> 100 nM: IC50 (second compound 0.01 µM) | IC50 (second compound 0.0316 µM) | IC50 (second compound 0.1 µM) | IC50 (second compound 0.316 µM) | IC50 (second compound 1 µM)
active: viability, T/C (second compound 0.00316 µM, first compound 0.001 µM) 10.5% | viability, T/C [1] 7.58% | viability, T/C [2] 9.25% | viability, T/C [3] 9.45% | viability, T/C [4] 8.48%

O=C(c1ccc(F)c(F)c1Nc1ccc(I)cc1F)N1CC(O)([C@@H]2CCCCN2)C1 + CNC(C)C(=O)NC1CN(S(=O)(=O)c2cccc(S(=O)(=O)N3CCC4CCC(C(=O)NC(c5ccccc5)c5ccccc5)N4C(=O)C(NC(=O)C(C)NC)C3)c2)CCC2CCC(C(=O)NC(c3ccccc3)c3ccccc3)N2C1=O
active: viability, T/C [4] 3.19% | viability, T/C [5] 0.64% | viability, T/C [6] 0.34% | viability, T/C [9] 8.64% | viability, T/C [10] 18.4% | viability, T/C [11] 2.31% | viability, T/C [12] 2.27% | viability, T/C [16] 8.55% | viability, T/C [17] 1.84% | viability, T/C [18] 1.89% | viability, T/C [22] 1.22% | viability, T/C [23] 0.55% | viability, T/C [24] 1.32% | viability, T/C [29] 2.54% | viability, T/C [30] 1.35% | viability, T/C [34] 1.86% | viability, T/C [35] 0.87% | viability, T/C [36] 1.24%
46.6 nM: IC50 (second compound 0.0316 µM)
38.5 nM: IC50 (second compound 0.316 µM)
24 nM: IC50 (second compound 1 µM)
inactive: viability, T/C [1] 113% | viability, T/C [2] 94.8% | viability, T/C [3] 64.3% | viability, T/C [7] 98.9% | viability, T/C [8] 109% | viability, T/C [13] 103% | viability, T/C [14] 87.8% | viability, T/C [15] 71.4% | viability, T/C [19] 99.6% | viability, T/C [20] 99.8% | viability, T/C [21] 70.7% | viability, T/C [25] 109% | viability, T/C [26] 107% | viability, T/C [27] 56% | viability, T/C [28] 14.7% | viability, T/C [31] 102% | viability, T/C [32] 106% | viability, T/C [33] 32.9%
19.2 nM: IC50 (second compound 0.01 µM)
40.6 nM: IC50 (second compound 0.00316 µM)
44.6 nM: IC50 (second compound 0.1 µM)
